Measured values taken from patent US6653258B1 (priority 1987, dated 2003).

Key:
[1] = test system: foliar fungal diseases of plants; type: in vivo; design: key to disease control grading, […] (VINE): 4: no disease; 3: trace −5% of disease on untreated plants; key to disease control grading, PUCCINIA RECONDITA (WHEAT) / disease control grading, VENTURIA INAEQUALIS (APPLE) / disease control grading, CERCOSPORA ARACHIDICOLA (PEANUT) / disease control grading, PH[…] (TOMATO) / disease control grading, P[…] (RICE): 4: no disease; 3: trace −5% of disease on untreated plants; 6-25% of disease on untreated plants; 1: 26-59% of disease on untreated plants; 60-100% of disease on untreated plants; settings: applied to soil (roots) and foliage one or two days before inoculation; for disease control grading, CERCOSPORA ARACHIDICOLA (PEANUT): Cercospora arachidicola on peanut; for disease control grading, P[…] (RICE): P[…] on rice; for disease control grading, PH[…] (TOMATO): Ph[…] on tomato; for disease control grading, PUCCINIA RECONDITA (WHEAT): Puccinia recondita on wheat; for disease control grading, VENTURIA INAEQUALIS (APPLE): Venturia inaequalis on apple; for disease control grading, […] (VINE): […] on vine
Erysiphe graminis = assay: Foliar fungal disease test on Erysiphe graminis, plants inoculated 24 hours before treatment (Table V); type: in vivo; design: key: 4: no disease; 3: trace −5% of disease on untreated plants; 6-25% of disease on untreated plants; 1: 26-59% of disease on untreated plants; 60-100% of disease on untreated plants; settings: plants inoculated 24 hours before treatment

| SMILES | disease control grading, CERCOSPORA ARACHIDICOLA (PEANUT) [1] | disease control grading, P[…] (RICE) [1] | disease control grading, PH[…] (TOMATO) [1] | disease control grading, PUCCINIA RECONDITA (WHEAT) [1] | disease control grading, VENTURIA INAEQUALIS (APPLE) [1] | disease control grading, […] (VINE) [1] | disease control grading, ERYSIPHE GRAMINIS (BARLEY) (Erysiphe graminis) |
| --- | --- | --- | --- | --- | --- | --- | --- |
| CO/C=C(/C(=O)OC)c1ccccc1COc1cc(C(F)(F)F)ccn1 [174 (Table I)] | 4 | 0 (60-100% of disease on untreated plants) | 4 | 4 | 4 | 4 | 4 |
| CO/C=C(/C(=O)OC)c1ccccc1COc1cccc(Br)n1 [176 (Table I)] | – | 4 | 4 | 4 | 4 | 4 | 4 |
| CO/C=C(/C(=O)OC)c1ccccc1COc1ccc(C#N)cc1 [38 (Table I)] | 4 | 0 (60-100% of disease on untreated plants) | 4 | 4 | 4 | 4 | 4 |
| CO/C=C(/C(=O)OC)c1ccccc1COc1cccc(Oc2ccccc2OC)c1 [173 (Table I)] | 4 | 0 (60-100% of disease on untreated plants) | 4 | 4 | 4 | 4 | 3 (trace −5% of disease on untreated plants) |
| CO/C=C(/C(=O)OC)c1ccccc1COc1cccc(Oc2ccccc2)n1 [185 (Table I)] | 4 | 4 | 4 | 4 | 2 (6-25% of disease on untreated plants) | 4 | 4 |
| CO/C=C(/C(=O)OC)c1ccccc1COc1cccc(Oc2cccc(C)c2)c1 [181 (Table I)] | 4 | 3 (trace −5% of disease on untreated plants) | 4 | 4 | 4 | 4 | 4 |
| CO/C=C(/C(=O)OC)c1ccccc1COc1cccc(Oc2cccc(Br)c2)c1 [183 (Table I)] | 4 | 3 (trace −5% of disease on untreated plants) | 4 | 0 (60-100% of disease on untreated plants) | 4 | 4 | 4 |
| CO/C=C(/C(=O)OC)c1ccccc1COc1cccc(OCc2ccccc2)c1 [184 (Table I)] | 4 | 3 (trace −5% of disease on untreated plants) | 4 | 4 | 4 | 4 | 4 |
| CO/C=C(/C(=O)OC)c1ccccc1COc1cccc(C(C)(C)C)c1 [29 (Table I)] | 4 | 4 | 4 | 4 | 4 | 4 | 2 (6-25% of disease on untreated plants) |
| CO/C=C(/C(=O)OC)c1ccccc1COc1cccc(Cl)c1Cl [163 (Table I)] | 4 | 2 (6-25% of disease on untreated plants) | 4 | 4 | 4 | 4 | 4 |
